Experimental data: patent US20240308995A1, “O-GLYCOPROTEIN-2-ACETAMIDO-2-DEOXY-3-D-GLUCOPYRANOSIDASE INHIBITORS” (BIOGEN MA INC., priority 2018, published 2024)

What was measured:
P-gp (MDR1) = assay: MDR1-MDCK Efflux Ratio Assay; format: in vitro ADME; conditions: dog, MDCK-MDR1, pH 7.4, MDR1-MDCK cells, 2 hr, pH 7.4; read-out: MDR1-MDCK Efflux Ratio (B-A/A-B)
Description: MDR1-MDCK cell monolayers were grown to confluence on microporous polyester membranes in 96-well Corning insert plates. The permeability assay buffer was Hanks' Balanced Salt Solution containing 10 mM HEPES at pH of 7.4. Loperamide (1 μM) was used as a positive control P-gp substrate. Propranolol and Bestatin (1 μM) were used as high and low permeability comparators, respectively. Test compounds or positive control P-gp substrate/permeability comprators were added to respective apical and basolateral chambers for bidirectional assessment of permeability. Receiver buffer (transport buffer supplemented with 1% bovine serum albumin) was added to respective receiver chambers. MDR1-MDCK cells were incubated with test compounds at 37° C. with 5% CO2 for 2 hr. Samples were collected from the donor chamber at both 0 and 120 minutes, and from the receiver chamber at 120 minutes. Test and control compound concentrations were determined using LC-MS/MS analysis. Each determination was performed in triplicate. The apparent permeability (Papp), efflux ratio and mass balance (percent recovery) were calculated as follows: [formula] where: dCr/dt is the cumulative concentration in the receiver compartment versus time in μM s^−1 Vr is the volume of the receiver compartment in cm^3 Vd is the volume of the donor compartment in cm^3 A is the area of the insert (0.143 cm^2 for 96-well insert) CE is the estimated experimental concentration (Time=0) of the dosing solution Cr^final is the concentration of the receiver at the end of the incubation period Cd^final is the concentration of the donor at the end of the incubation period.

[1] = target: OGA (S400 O-GLCNAC), HEK-293T cells transfected with Tau-V5 (Homo sapiens (Human), UniProt O60502); assay: Cellular OGA-Tau MSD Assay; format: cell-based
Description: HEK-293T cells were transfected with […] and Tau-V5 plasmids using Lipofectamine and grown overnight. Next day, the cells were collected and re-plated at 1×10^5 cells per well in 96 well plates. Cells were incubated for 4 hr at 37° C., before compounds were added at 1 uM, with 3-fold dilutions in a 10-point titration. Cell plates were incubated with compounds overnight at 37° C. The next day media was removed from wells by gentle aspiration and 120 ul of 1× Cell Lysis buffer mixed with protease and phosphatase cocktail added to each well. A freeze thaw was performed at -80° C., then mixed before transferring 50 ul to MSD plates coated with V5-tag antibody to capture Tau. MSD Plates were incubated overnight at 4° C., on a plate shaker. The following day, plates were washed and incubated with Tau-[…]-GlcNAc antibody for 2 hr and then developed with rabbit Sulfo-tag antibody. Final read out was carried out on an MSD 600 reader. The data was analyzed using Graph Pad or Genedata, the data was normalized and % activity versus log of compound concentration was plotted. The IC50 values were obtained from a 4 parameter fit.

[2] = target: Recombinant full length human OGA enzyme (Homo sapiens (Human), UniProt O60502); assay: OGA Enzyme Inhibition Biochemical Assay; conditions: 1 nM OGA, 100 μM 4-MUGlcNAc, pH 6.4
Description: Recombinant full length human OGA enzyme was purchased from Origene. 4-MUGlcNAc substrate was purchased from Sigma. All other reagents were purchased from Sigma or Fisher. Assay buffer consists of the McIlvaine buffer system, pH 6.4 (0.2M Na2HPO4 mixed with 0.1M citric acid) and 0.01% BSA. […] Reactions were incubated for 90 minutes at room temperature and quenched with 40 μl of 3M glycine, pH 10 and read on a Perkin Elmer Envision plate reader (Ex: 355 nm/Em: 460 nm). Compounds were tested with a 10-point dose-response starting from 20 μM with a 4-fold dilution. Data was fit using GraphPad Prism using a 4-parameter fit with variable slope.

[3] = Rat Liver Microsome Stability Assay; format: in vitro ADME; conditions: rat liver microsomes, 1 uM compound
[4] = HEK-293T cells, Tau-S400-GlcNAc MSD readout

Chain of OGA (S400 O-GLCNAC), HEK-293T cells transfected with Tau-V5 (O60502 whole entry): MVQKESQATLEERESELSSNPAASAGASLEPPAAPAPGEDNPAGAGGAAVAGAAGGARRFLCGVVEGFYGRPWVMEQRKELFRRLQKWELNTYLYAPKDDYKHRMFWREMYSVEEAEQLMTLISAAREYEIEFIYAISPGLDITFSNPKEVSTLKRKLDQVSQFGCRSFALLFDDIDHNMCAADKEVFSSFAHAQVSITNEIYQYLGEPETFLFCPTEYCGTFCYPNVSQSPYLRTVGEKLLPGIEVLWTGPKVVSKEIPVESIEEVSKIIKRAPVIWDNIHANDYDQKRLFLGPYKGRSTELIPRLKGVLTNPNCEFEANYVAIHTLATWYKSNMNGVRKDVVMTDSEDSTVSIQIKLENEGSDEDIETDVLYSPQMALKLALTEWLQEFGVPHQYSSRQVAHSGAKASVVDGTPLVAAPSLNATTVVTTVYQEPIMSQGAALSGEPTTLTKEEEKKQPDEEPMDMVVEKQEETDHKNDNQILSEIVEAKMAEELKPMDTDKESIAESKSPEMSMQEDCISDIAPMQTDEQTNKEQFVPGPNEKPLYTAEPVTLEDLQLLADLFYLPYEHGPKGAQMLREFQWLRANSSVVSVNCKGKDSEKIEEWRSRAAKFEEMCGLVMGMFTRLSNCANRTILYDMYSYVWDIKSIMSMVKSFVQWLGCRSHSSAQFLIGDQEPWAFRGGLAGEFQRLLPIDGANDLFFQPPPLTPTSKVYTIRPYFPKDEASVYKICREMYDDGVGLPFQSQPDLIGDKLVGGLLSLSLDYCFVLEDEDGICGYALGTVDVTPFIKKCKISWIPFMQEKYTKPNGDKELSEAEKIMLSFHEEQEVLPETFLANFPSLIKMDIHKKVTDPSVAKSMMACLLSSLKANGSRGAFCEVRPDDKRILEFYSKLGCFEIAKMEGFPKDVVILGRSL
Chain of Recombinant full length human OGA enzyme (O60502 whole entry): as above

COc1cccc(O[C@@H]2C[C@H](C)N(Cc3sc(NC(C)=O)nc3F)C2)n1 [Example 1-99, N-(4-fluoro-5-(((2S,4R)-4-((6-methoxypyridin-2-yl)oxy)-2-methylpyrrolidin-1-yl)methyl)thiazol-2-yl)acetamide]
efflux ratio at 2 h (P-gp (MDR1)): 2.2
IC50 [1, 4]: 1 nM
IC50 [2]: < 1 nM
RLM % Qh (%) [3]: 95%

CC(=O)Nc1nc(F)c(CN2CC[C@H](Oc3cc(C)nc(C)c3)C2)s1 [Example 1-48, (S)—N-(5-((3-((2,6-dimethylpyridin-4-yl)oxy)pyrrolidin-1-yl)methyl)-4-fluorothiazol-2-yl)acetamide]
efflux ratio at 2 h (P-gp (MDR1)): 24.1
IC50 [1, 4]: 821 nM
IC50 [2]: 150 nM
RLM % Qh (%) [3]: 57%

CC(=O)Nc1nc(F)c(CN2C[C@H](Oc3ccc(F)cn3)C[C@@H]2C)s1 [Example 1-47, N-(4-fluoro-5-(((2S,4R)-4-((5-fluoropyridin-2-yl)oxy)-2-methylpyrrolidin-1-yl)methyl)thiazol-2-yl)acetamide]
efflux ratio at 2 h (P-gp (MDR1)): 1.5
IC50 [1, 4]: 1 nM
IC50 [2]: < 1 nM
RLM % Qh (%) [3]: 76%

CC(=O)Nc1ncc(CN2C[C@@H](Oc3ccc(F)cn3)C[C@@H]2C)s1 [Example 1-9, N-(5-(((2S,4S)-4-((5-fluoropyridin-2-yl)oxy)-2-methylpyrrolidin-1-yl)methyl)thiazol-2-yl)acetamide]
efflux ratio at 2 h (P-gp (MDR1)): 1.9
IC50 [1, 4]: 32 nM
IC50 [2]: 39 nM
RLM % Qh (%) [3]: 87%

CC(=O)Nc1ncc(CN2C[C@H](Oc3ccc(F)c(C)n3)C[C@@H]2C)s1 [Example 1-15, N-(5-(((2S,4R)-4-((5-fluoro-6-methylpyridin-2-yl)oxy)-2-methylpyrrolidin-1-yl)methyl)thiazol-2-yl)acetamide]
efflux ratio at 2 h (P-gp (MDR1)): 2.2
IC50 [1, 4]: 2 nM
IC50 [2]: < 1 nM
RLM % Qh (%) [3]: 95%

CC(=O)Nc1ncc(CN2C[C@H](Oc3cc(C)ncc3C)C[C@@H]2C)s1 [Example 1-72, N-(5-(((2S,4R)-4-((2,5-dimethylpyridin-4-yl)oxy)-2-methylpyrrolidin-1-yl)methyl)thiazol-2-yl)acetamide]
efflux ratio at 2 h (P-gp (MDR1)): 55.1
IC50 [1, 4]: 8 nM
IC50 [2]: 7.2 nM
RLM % Qh (%) [3]: 64%

COc1cc(O[C@@H]2C[C@@H](C)N(Cc3cnc(NC(C)=O)s3)C2)ncn1 [Example 1-38, N-(5-(((2R,4R)-4-((6-methoxypyrimidin-4-yl)oxy)-2-methylpyrrolidin-1-yl)methyl)thiazol-2-yl)acetamide]
efflux ratio at 2 h (P-gp (MDR1)): 3.9
IC50 [1, 4]: > 1000 nM
IC50 [2]: 250 nM
RLM % Qh (%) [3]: 32%

CC(=O)Nc1nc(F)c(CN2C[C@H](Oc3cc(C)ncc3C)C[C@@H]2C)s1 [Example 1-107, N-(5-(((2S,4R)-4-((2,5-dimethylpyridin-4-yl)oxy)-2-methylpyrrolidin-1-yl)methyl)-4-fluorothiazol-2-yl)acetamide]
efflux ratio at 2 h (P-gp (MDR1)): 17.2
IC50 [2]: 1.7 nM
RLM % Qh (%) [3]: 58%

CC(=O)Nc1ncc(CN2C[C@H](Oc3cc(C)c(F)cn3)C[C@@H]2C)s1 [Example 1-87, N-(5-(((2S,4R)-4-((5-fluoro-4-methylpyridin-2-yl)oxy)-2-methylpyrrolidin-1-yl)methyl)thiazol-2-yl)acetamide]
efflux ratio at 2 h (P-gp (MDR1)): 1.8
IC50 [1, 4]: < 1 nM
IC50 [2]: < 1 nM
RLM % Qh (%) [3]: 81%

CC(=O)Nc1ncc(CN2C[C@H](Oc3ccc(F)nn3)C[C@@H]2C)s1 [Example 1-83, N-(5-(((2S,4R)-4-((6-fluoropyridazin-3-yl)oxy)-2-methylpyrrolidin-1-yl)methyl)thiazol-2-yl)acetamide]
efflux ratio at 2 h (P-gp (MDR1)): 38.6
IC50 [1, 4]: 1 nM
IC50 [2]: < 1 nM
RLM % Qh (%) [3]: 16%

CC(=O)Nc1nc(F)c(CN2C[C@H](Oc3ncc(C)nc3C)C[C@@H]2C)s1 [Example 1-106, N-(5-(((2S,4R)-4-((3,5-dimethylpyrazin-2-yl)oxy)-2-methylpyrrolidin-1-yl)methyl)-4-fluorothiazol-2-yl)acetamide]
efflux ratio at 2 h (P-gp (MDR1)): 4.6
IC50 [2]: 2.4 nM
RLM % Qh (%) [3]: 86%

CC(=O)Nc1ncc(CN2C[C@H](Oc3cc(OCC(F)(F)F)ncn3)C[C@@H]2C)s1 [Example 1-77]
IC50 [1, 4]: 10 nM
IC50 [2]: < 1 nM
RLM % Qh (%) [3]: 58%

CC(=O)Nc1nc(F)c(CN2C[C@@H](Oc3cc(C)nc(C)c3)CC[C@@H]2C)s1 [Example 1-56, N-(5-(((2S,5S)-5-((2,6-dimethylpyridin-4-yl)oxy)-2-methylpiperidin-1-yl)methyl)-4-fluorothiazol-2-yl)acetamide]
efflux ratio at 2 h (P-gp (MDR1)): 21.8
IC50 [2]: < 1 nM
RLM % Qh (%) [3]: 91%

CC(=O)Nc1ncc(CN2C[C@H](Oc3ncc(C)nc3C)C[C@@H]2C)s1 [Example 1-81, N-(5-(((2S,4R)-4-((3,5-dimethylpyrazin-2-yl)oxy)-2-methylpyrrolidin-1-yl)methyl)thiazol-2-yl)acetamide]
efflux ratio at 2 h (P-gp (MDR1)): 7.3
IC50 [2]: 8.4 nM
RLM % Qh (%) [3]: 74%

COc1cc(O[C@@H]2C[C@@H](C)N(Cc3sc(NC(C)=O)nc3F)C2)ncn1 [Example 1-29, N-(4-fluoro-5-(((2R,4R)-4-((6-methoxypyrimidin-4-yl)oxy)-2-methylpyrrolidin-1-yl)methyl)thiazol-2-yl)acetamide]
IC50 [1, 4]: 97 nM
IC50 [2]: 58 nM

CC(=O)Nc1nc(F)c(CN2C[C@H](Oc3cc(N4CC(F)C4)ncn3)C[C@@H]2C)s1 [Example 1-25, N-(4-fluoro-5-(((2S,4R)-4-((6-(3-fluoroazetidin-1-yl)pyrimidin-4-yl)oxy)-2-methylpyrrolidin-1-yl)methyl)thiazol-2-yl)acetamide]
IC50 [1, 4]: < 1 nM
IC50 [2]: < 1 nM

[2H]C([2H])(c1sc(NC(C)=O)nc1F)N1C[C@H](Oc2cc(OC)ncn2)C[C@@H]1C (single isomer, unassigned) [Example 1-161]
IC50 [1, 4]: 4 nM
IC50 [2]: < 1 nM

CC(=O)Nc1ncc(CN2C[C@H](Oc3cc(Cl)ncn3)C[C@@H]2C)s1 [Example 1-21, N-(5-(((2S,4R)-4-((6-chloropyrimidin-4-yl)oxy)-2-methylpyrrolidin-1-yl)methyl)thiazol-2-yl)acetamide]
efflux ratio at 2 h (P-gp (MDR1)): 3.8
IC50 [1, 4]: 7 nM
IC50 ([1]; repeated assay, value marked with asterisk (*)): 8 nM
IC50 [2]: < 1 nM

CC(=O)Nc1ncc(CN2C[C@H](Oc3cc(OC4CN(C)C4)ncn3)C[C@@H]2C)s1 [Example 1-125, N-(5-(((2S,4R)-2-methyl-4-((6-((1-methylazetidin-3-yl)oxy)pyrimidin-4-yl)oxy)pyrrolidin-1-yl)methyl)thiazol-2-yl)acetamide]
efflux ratio at 2 h (P-gp (MDR1)): 1
IC50 [2]: 1.4 nM
RLM % Qh (%) [3]: 54%

CC(=O)Nc1ncc(CN2C[C@@H](Oc3cc(C)nc(C)c3)CC[C@@H]2C)s1 [Example 1-66, N-(5-(((2S,5S)-5-((2,6-dimethylpyridin-4-yl)oxy)-2-methylpiperidin-1-yl)methyl)thiazol-2-yl)acetamide]
IC50 [1, 4]: 4 nM
IC50 [2]: < 1 nM

COc1cc(O[C@@H]2CCN(Cc3cnc(NC(C)=O)s3)C2)ncn1 [Example 1-37, (R)—N-(5-((3-((6-methoxypyrimidin-4-yl)oxy)pyrrolidin-1-yl)methyl)thiazol-2-yl)acetamide]
IC50 [1, 4]: 27 nM
IC50 [2]: 36 nM

CC(=O)Nc1nc(F)c(CN2C[C@H](Oc3ccc(F)nn3)C[C@@H]2C)s1 [Example 1-111, N-(4-fluoro-5-(((2S,4R)-4-((6-fluoropyridazin-3-yl)oxy)-2-methylpyrrolidin-1-yl)methyl)thiazol-2-yl)acetamide]
IC50 [1, 4]: 1 nM
IC50 [2]: < 1 nM
